Test results from PMC5640650, “NatD promotes lung cancer progression by preventing histone H4 serine phosphorylation to activate Slug expression” (Nature Communications, 2017).

What was measured:
[1] = tested on: H1299 cells; experiment: Cell growth (CCK-8), H1299 cells; type: cell-based, human; conditions: vs Scr
Method: The in vitro viability of H1299 cells was assessed using the Cell Counting Kit-8 (CCK-8, Dojindo, Japan) according to the manufacturer’s protocol. Flow cytometric analysis of apoptosis was assessed by Annexin V and PI staining using the Annexin V-APC Apoptosis Detection Kit (KeyGEN BioTECH, China) according to the manufacturer’s guide. For cell cycle analysis, cells were harvested and fixed at 4 °C overnight with 70% ethanol. Cells were washed twice with PBS, and their DNA was stained using a Cell Cycle Detection Kit (KeyGEN BioTECH, China). The samples were analyzed by flow cytometry (Becton Dickinson, NJ, USA), and results were analyzed with FlowJo software according to the manufacturer’s instructions. For the wound healing assay, cells were plated to confluence in a 6-well plate, and the cell monolayer was scratched using a pipette tip. Representative photos were taken using a digital camera mounted on an inverted microscope (Olympus) at indicated times. Live cell imaging was performed using the HoloMonitor M4 time-lapse cytometer (Phase Holographic Imaging, Sweden). […]
Supplementary Figure 1. […] (b and c) Representative images from three independent experiments of apoptosis (b) and cell cycle analysis (c) of Scr and NatD-KD H1299 cells analyzed by flow cytometry. […]

[2] = tested on: H1299 cells; experiment: Wound healing assay, H1299 cells; type: cell-based, human; conditions: vs Scr
Description: Fig. 2 NatD is required for lung cancer cell migration and invasion in vitro. a Quantitative real-time PCR analysis of NatD mRNA levels normalized to GAPDH in scrambled control cells (Scr) and NatD-KD1 and NatD-KD2 cells. Results are shown as mean ± s.d. from three independent experiments. Two-tailed Student’s t-test was used. **P < 0.01 compared to Scr control. b Western blot analysis of NatD and Nt-ac-H4 protein levels in scrambled, NatD-KD1, and NatD-KD2 cells. GAPDH and histone H4 served as loading controls. Blots are representative of three independent experiments. c Representative images from wound healing assay of scrambled, NatD-KD1, and NatD-KD2 cells from three independent experiments (left panels). Wound healing assay results are quantified in the histogram (right panel). […] Cell migration and invasion are expressed as a percentage of control (bottom panel). […]
The in vitro viability of H1299 cells was assessed using the Cell Counting Kit-8 (CCK-8, Dojindo, Japan) according to the manufacturer’s protocol. Flow cytometric analysis of apoptosis was assessed by Annexin V and PI staining using the Annexin V-APC Apoptosis Detection Kit (KeyGEN BioTECH, China) according to the manufacturer’s guide. […] The samples were analyzed by flow cytometry (Becton Dickinson, NJ, USA), and results were analyzed with FlowJo software according to the manufacturer’s instructions. […]

[3] = tested on: LLC cells; experiment: Transwell migration and invasion assay, LLC cells; type: cell-based, murine; conditions: LLC cells in vitro, vs Scr
[4] = tested on: CK2α; experiment: CK2α localization by confocal immunofluorescence / western blot, H1299 cells; type: cell-based, human; conditions: NatD knockdown H1299 cells
Description: Fig. 7 Downregulation of Nt-acetylation of histone H4 facilitates nuclear accumulation of CK2α and its binding to histone H4 in lung cancer cells. a Representative confocal scanning images of CK2α localization in Scr and H1299 cells (left panel). The staining intensity of CK2α was quantified by software ImageJ from NIH (right diagram). Scale bars, 5 μm. […] Equal peptide biotinylated on C terminus is shown by dot blot analysis with streptavidin (middle panel). […] IgG served as a negative control. Results are shown as mean ± s.d. from three independent experiments; two-tailed Student’s t-test, **P < 0.01 compared with the indicated control. g Quantitative real-time PCR analysis of mRNA levels of CK2α and Slug normalized to GAPDH in Scr and NatD-KD H1299 cells in the absence or presence of siRNA to CK2α. NC, siRNA mimics negative control. […]
For immunofluorescence assays, cells were fixed with 4% formaldehyde for 5 min at room temperature. […] Sub-cellular distribution of CK2α was analyzed by confocal scanning microscopy (Olympus FV10i). The relative intracellular distribution of CK2α in each experimental sample was calculated as the nuclear to total (cytoplasmic + nuclear) ratio by measuring the intensity of the signals in each cellular compartment with the aid of ImageJ software (NIH). […]

| Substance | cell growth rate [1] | migration in wound healing assay [2] | migratory and invasive capabilities [3] | CK2α in the cytoplasm (western blot) [4] | CK2α localized in the nucleus ([4]; more than 30 cells (Scr: about 70%)) |
| --- | --- | --- | --- | --- | --- |
| NatD-KD1: Human NatD shRNA KD1: 5′-GATGAAGAAGGTTATGTTA-3′, lentiviral (shRNA, lentiviral) | grew at a similar rate | migrated significantly more slowly |  |  |  |
| NatD-KD2: Human NatD shRNA KD2: 5′-GGTTGAATGTCTCCATTGA-3′, lentiviral (shRNA lentiviral) | grew at a similar rate | migrated significantly more slowly | significantly decreased | no detectable levels | ~100% |
